Where two headings read alike, the source gives them in different places.
How the values were obtained:
[1] = system: Huh-7 ET, Molt-4, DU-145, Hep-G2 and SH-SY5Y cells; experiment: [3H]Thymidine incorporation assay (cytotoxicity, CC50); conditions: [3H]thymidine incorporation; cell line not given
[2] = system: HCV sub-genomic replicon of genotype 1a in replicon cell line W11.8; experiment: microbe, parasite or virus in culture; type: cell-based, Hepatitis C virus; conditions: read-out: HCV-Replicon-ELISA-1a IC50
[3] = system: HCV replicon (genotype 1b) in Huh7 hepatoma cell line ET; experiment: microbe, parasite or virus in culture; type: cell-based, Hepatitis C virus; conditions: read-out: HCV-Replicon-1b_IC50
[4] = [3H]Thymidine incorporation assay (cytotoxicity, CC50); conditions: human

Compound	CC50 [1]	IC50 [2]	IC50 [3]	CC50 at 72 h [4]	IC50 ([3]; Hepatitis C virus, Huh-7, 96 h)
CC(C)C#Cc1cc(N(C(=O)[C@H]2CC[C@H](C)CC2)[C@H]2CC[C@H](O)CC2)c(C(=O)O)s1 [Compound 4, 5-(3-methylbut-1-ynyl)-3-[(4-trans-hydroxycyclohexyl)-(4-trans-methylcyclohexanecarbonyl)amino]thiophene-2-carboxylic acid]	10000 to 100000 nM	< 100 nM	< 100 nM	–	–
CCO[C@H]1CC[C@H](N(c2cc(C#CC(C)(C)C)sc2C(=O)O)C(=O)[C@H]2CC[C@H](C)CC2)CC1 [Compound 35, 5-(3,3-Dimethylbut-1-yn-1-yl)-3-((N-4-trans-ethoxycyclohexyl)-4-trans-methylcyclohexanecarboxamido)thiophene-2-carboxylic acid]	10000 to 100000 nM	100 to 1000 nM	< 100 nM	–	–
CC(C)(C)C#Cc1cc(N(C(=O)[C@H]2CC[C@H](C)CC2)[C@H]2CC[C@H](OC3CC3)CC2)c(C(=O)O)s1 [Compound 38, 5-(3,3-Dimethylbut-1-yn-1-yl)-3-((N-4-trans-cyclopropoxycyclohexyl)-4-trans-methylcyclohexanecarboxamido)thiophene-2-carboxylic acid]	10000 to 100000 nM	100 to 1000 nM	< 100 nM	–	–
CC(C)(C)C#Cc1cc(N(C(=O)c2ccc(Cl)cc2F)[C@H]2CC[C@H](O)CC2)c(C(=O)O)s1 [Compound 91, 3-[(4-Chloro-2-fluoro-benzoyl)-(trans-4-hydroxy-cyclohexyl)-amino]-5-(3,3-dimethyl-but-1-ynyl)-thiophene-2-carboxylic acid]	–	–	–	10000 to 100000 nM	100 to 1000 nM
CC(C)C#Cc1cc(N(C(=O)[C@H]2CC[C@H](C)CC2)C2CCN(C(=O)CCCCCN)CC2)c(C(=O)O)s1 [Compound 95, 3-((trans-4-Methylcyclohexanecarbonyl)-(1-(6-amino-hexanoyl)-piperidin-4-yl)amino)-5-(3-methylbut-1-ynyl)thiophene-2-carboxylic acid]	–	–	–	10000 to 100000 nM	100 to 1000 nM
Methyl-5-(3,3-dimethylbut-1-yn-1-yl)-3-(trans-4-methyl-N-(cis-3-((dimethylamino)methyl)cyclobutyl)cyclohexanecarboxamido)thiophene-2 carboxylate [Compound 65]	10000 to 100000 nM	< 100 nM	< 100 nM	–	–

— US20140065103A1 (VERTEX PHARMACEUTICALS INCORPORATED, priority 2010, published 2014)
